From PubChem BioAssay AID248 (DTP/NCI, 2004)
“And” between values parts separate entries of the source, which are not always exact repeats. Equal entries are not always repeated. Toxic doses and inconclusive results are not listed. Rule as the data show it: active = T/C of 150% or more; inactive = T/C below 125%. Square brackets hold non-standard residues; d marks the D form. Peptide text beside a SMILES is read from it. ξ: configuration not given here. ξY = NC(Cc1ccc(O)cc1)C(=O)O

Test system: L1210 leukemia ip in BDF1 mice, survival T/C
Assay: NCI In Vivo Anticancer Drug Screen. Data for tumor model L1210 Leukemia (intraperitoneal) in B6D2F1 (BDF1) mice
Details: endpoint: mean survival time, higher = longer survival
How it was run: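 In this screen, tumor-bearing mice given compound are compared to those given vehicle, and their survival values are reported as a treated-to-control quotient.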

[1] = dose: 100.0 mg/kg/injection, schedule: Q01DX009 (ip), vehicle: saline
[2] = dose: 100.0 mg/kg/injection, schedule: Q04DX003 (ip), vehicle: saline
[3] = dose: 200.0 mg/kg/injection, schedule: Q01DX009 (ip), vehicle: saline
[4] = dose: 200.0 mg/kg/injection, schedule: Q04DX003 (ip), vehicle: saline
[5] = dose: 400.0 mg/kg/injection, schedule: Q01DX009 (ip), vehicle: saline
[6] = dose: 400.0 mg/kg/injection, schedule: Q04DX003 (ip), vehicle: saline
[7] = dose: 100.0 mg/kg/injection, schedule: Q01DX009 (ip), vehicle: Klucel (hydroxypropylcellulose) (HPC)
[8] = dose: 200.0 mg/kg/injection, schedule: Q01DX009 (ip), vehicle: Klucel (hydroxypropylcellulose) (HPC)
[9] = dose: 100.0 mg/kg/injection, schedule: Q01DX001 (ip), vehicle: saline
[10] = dose: 200.0 mg/kg/injection, schedule: Q01DX001 (ip), vehicle: saline
[11] = dose: 400.0 mg/kg/injection, schedule: Q01DX001 (ip), vehicle: saline
[12] = dose: 50.0 mg/kg/injection, schedule: Q01DX009 (ip), vehicle: Klucel (hydroxypropylcellulose) (HPC)
[13] = dose: 100.0 mg/kg/injection, schedule: Q04DX003 (ip), vehicle: Klucel (hydroxypropylcellulose) (HPC)
[14] = dose: 200.0 mg/kg/injection, schedule: Q04DX003 (ip), vehicle: Klucel (hydroxypropylcellulose) (HPC)
[15] = dose: 400.0 mg/kg/injection, schedule: Q04DX003 (ip), vehicle: Klucel (hydroxypropylcellulose) (HPC)

Measured: T/C

Cn1c(C(C)(C)O)cc2ccccc21
inactive: dose: 100.0 mg/kg/injection, schedule: Q04DX003 (ip), vehicle: saline with Tween-80 102 % of control | dose: 200.0 mg/kg/injection, schedule: Q04DX003 (ip), vehicle: saline with Tween-80 107 % of control | dose: 400.0 mg/kg/injection, schedule: Q04DX003 (ip), vehicle: saline with Tween-80 100 % of control

CCCCCCCCCCCCCCCCCCCCCCCCCC(=O)OCCCCCCCCCCCCCC
inactive: [1] 107 % of control | [2] 109 % of control | [3] 96 % of control | [4] 97 % of control | [5] 94 % of control | [6] 98 % of control

CC1CN(c2ccccc2)NC1=O (stereo not given)
inactive: [2] 97 % of control | [4] 95 % of control | [6] 97 % of control

CSc1ccc(NC(=O)N(Cc2ccccc2)c2ccccc2)cc1
inactive: [7] 106 % of control | [8] 101 % of control | dose: 400.0 mg/kg/injection, schedule: Q01DX009 (ip), vehicle: Klucel (hydroxypropylcellulose) (HPC) 95 % of control

COc1ccc(C(=O)C(=O)c2ccc(OC)cc2)cc1
inactive: dose: 100.0 mg/kg/injection, schedule: Q04DX002 (ip), vehicle: Klucel (hydroxypropylcellulose) (HPC) 98 % of control | dose: 200.0 mg/kg/injection, schedule: Q04DX002 (ip), vehicle: Klucel (hydroxypropylcellulose) (HPC) 98 % of control | dose: 400.0 mg/kg/injection, schedule: Q04DX002 (ip), vehicle: Klucel (hydroxypropylcellulose) (HPC) 95 % of control

CCOC(=O)c1cnc(C(Cl)(Cl)Cl)[nH]c1=O
inactive: dose: 100.0 mg/kg/injection, schedule: Q01DX001 (ip), vehicle: Klucel (hydroxypropylcellulose) (HPC) 94 % of control | dose: 200.0 mg/kg/injection, schedule: Q01DX001 (ip), vehicle: Klucel (hydroxypropylcellulose) (HPC) 99 % of control | dose: 400.0 mg/kg/injection, schedule: Q01DX001 (ip), vehicle: Klucel (hydroxypropylcellulose) (HPC) 92 % of control

CCCCCC(O)CCCCC
inactive: [1] 102 % of control | [3] 107 % of control | [5] 113 % of control

O=CNc1ncn[nH]1
inactive: dose: 50.0 mg/kg/injection, schedule: Q01DX001 (ip), vehicle: saline 98 % of control | [9] 98 % of control | [10] 104 % of control | [11] 104 % of control

NCC(=O)NC(Cc1ccc(O)cc1)C(=O)O (stereo not given) (H-Gly-[ξY]-OH)
inactive: [9] 104 % of control | [10] 105 % of control and 102 % of control | [11] 98 % of control and 93 % of control

O=C1C=CC(=C(c2ccccc2)c2ccccc2)C=C1
inactive: dose: 12.5 mg/kg/injection, schedule: Q01DX009 (ip), vehicle: Klucel (hydroxypropylcellulose) (HPC) 106 % of control | dose: 25.0 mg/kg/injection, schedule: Q01DX009 (ip), vehicle: Klucel (hydroxypropylcellulose) (HPC) 95 % of control | [12] 107 % of control | dose: 50.0 mg/kg/injection, schedule: Q01DX009 (ip), vehicle: saline 87 % of control | dose: 75.0 mg/kg/injection, schedule: Q04DX003 (ip), vehicle: saline 90 % of control | dose: 150.0 mg/kg/injection, schedule: Q04DX003 (ip), vehicle: saline 102 % of control

Nc1ncnc2nc(N=Nc3ccc(C(=O)O)c(O)c3)[nH]c12
inactive: [13] 96 % of control | [14] 105 % of control | [15] 102 % of control

Cc1ccc(NCc2ccc(N(C)C)cc2)cc1
inactive: [13] 99 % of control | [14] 91 % of control | [15] 93 % of control

O=C(NC(CS)C(=O)O)OCc1ccccc1 (stereo not given)
inactive: dose: 25.0 mg/kg/injection, schedule: Q04DX003 (ip), vehicle: Klucel (hydroxypropylcellulose) (HPC) 97 % of control | [12] 101 % of control | dose: 50.0 mg/kg/injection, schedule: Q04DX003 (ip), vehicle: Klucel (hydroxypropylcellulose) (HPC) 98 % of control | [7] 101 % of control | [13] 106 % of control and 113 % of control | [8] 98 % of control

CCCC(=O)OC(OC(=O)CCC)c1cccc(OC(=O)CC)c1
inactive: dose: 222.0 mg/kg/injection, schedule: Q01DX Z (ip), vehicle: methylcellulose (MC) 96 % of control | dose: 333.0 mg/kg/injection, schedule: Q01DX Z (ip), vehicle: methylcellulose (MC) 104 % of control | dose: 500.0 mg/kg/injection, schedule: Q01DX Z (ip), vehicle: methylcellulose (MC) 105 % of control

O/N=C1\c2ccccc2-c2cc(Cl)ccc21
inactive: dose: 100.0 mg/kg/injection, schedule: Q01DX001 (ip), vehicle: carboxymethylcellulose (CMC) 94 % of control | dose: 200.0 mg/kg/injection, schedule: Q01DX001 (ip), vehicle: carboxymethylcellulose (CMC) 109 % of control | dose: 400.0 mg/kg/injection, schedule: Q01DX001 (ip), vehicle: carboxymethylcellulose (CMC) 103 % of control

CCN(CCC[N+](C)(C)C)C(=O)C(c1ccccc1)c1ccccc1
inactive: [2] 93 % of control

CN1CCC(=C(C#N)C#N)CC1
inactive: [2] 91 % of control

Cc1ccc(S(=O)(=O)N/N=C2\CCCC3CC23C)cc1 (stereo not given)
inactive: dose: 75.0 mg/kg/injection, schedule: Q04DX002 (ip), vehicle: Klucel (hydroxypropylcellulose) (HPC) 93 % of control | dose: 150.0 mg/kg/injection, schedule: Q04DX002 (ip), vehicle: Klucel (hydroxypropylcellulose) (HPC) 93 % of control | dose: 300.0 mg/kg/injection, schedule: Q04DX002 (ip), vehicle: Klucel (hydroxypropylcellulose) (HPC) 104 % of control

O=[N+]([O-])c1cccc(N=Nc2ccc(O)cc2)c1
inactive: [7] 102 % of control | dose: 130.0 mg/kg/injection, schedule: Q01DX009 (ip), vehicle: Klucel (hydroxypropylcellulose) (HPC) 106 % of control

C(=C1\CC(c2ccccc2)(c2ccccc2)N=N1)/c1ccccc1
inactive: [13] 91 % of control | [14] 114 % of control | [15] 101 % of control
